In US20250241931A1, “METHODS OF TREATING A SUBJECT HAVING CLINICALLY SIGNIFICANT SIGNS AND SYMPTOMS ASSOCIATED WITH BLOOD CELL DIFFERENTIATION” (FOGHORN THERAPEUTICS INC., priority 2022, published 2025):

Test system: subjects with advanced hematologic malignancies (R/R AML or MDS)
Assay: ascending multiple dose escalation clinical trial (safety and tolerability, oral administration)
Type: in vivo, human
Details: ongoing study
Procedure: An ascending multiple dose escalation clinical trial of the compound shown below is conducted. It is primarily intended to evaluate the safety and tolerability of the compound shown below when administered orally to subjects with advanced hematologic malignancies, specifically relapsed or refractory acute myeloid leukemia (R/R AML) or myelodysplastic syndrome (MDS).
In this ongoing study, clinically significant signs and symptoms associated with blood cell differentiation have been reported for one of 21 subjects with acute myeloid leukemia treated with the compound shown above. This occurred approximately 7-14 days into the treatment with the compound shown above.

In the case of `COC[C@H](NC(=O)c1ccn(S(C)(=O)=O)c1)C(=O)Nc1nc(-c2cccc(N3C[C@@H](C)O[C@@H](C)C3)n2)cs1`, the “subjects with clinically significant signs and symptoms associated with blood cell differentiation” value (subjects with acute myeloid leukemia treated orally with the compound) was “one of 21” and the “time of occurrence of the clinically significant signs and symptoms associated with blood cell differentiation, into the treatment” value (the one affected subject with acute myeloid leukemia) was 7 to 14 days.
